One series has as its system Zika virus. The settings on record: Non-Patent Literatures 7 and 8, cited from earlier work.
Series [1] concerns dengue virus type-3 CH53489 strain (DENV3). The experiment in a line: Inhibitory effect on dengue virus type-3 replication in Vero cells. Type of series: cell-based. As to the method:
(§1) (1) One day before infection (Day 0), Vero cells were seeded in a 24-well plate and incubated at 37° C. and 5% CO2. A culture solution was MEM+10% fetal bovine serum+10 mM non-essential amino acid+1000 U/ml penicillin+100 μg/ml streptomycin. In an experiment in which the treatment with the agent was performed before infection, the agent to be examined was added to the culture solution at this point. In all experiments, 5-aminolevulinic acid hydrochloride was used as 5-ALA, sodium ferrous citrate (SFC) was used as an iron-containing compound, 300 μM ribavirin or lucidone of various concentrations was used as a positive control, and water was used as a negative control. […] After the viruses were adsorbed to the cells for 1 hour, the cells were rinsed with phosphate-buffered saline (PBS) to completely remove the inoculation liquid. A maintenance culture solution (MEM+1% fetal bovine serum+10 mM non-essential amino acid+1000 U/ml penicillin+100 μg/ml streptomycin+1 mM HEPES) in a volume of 1 ml was added to the plate, and the cells were cultured at 37° C. and 5% CO2. In an experiment in which the agent was added concurrently with infection, the agent to be examined was added to the maintenance culture solution at this point. (3) After 24 hours (Day 2), the culture solution was recovered from the plate and a fresh maintenance culture solution in a volume of 1 ml was added to the plate, and the cells were cultured at 37° C. and 5% CO2. In an experiment in which the agent was added after infection, the agent to be examined was added at predetermined time points after infection. The recovered culture solution was subjected to centrifugation at 3000 rpm for 5 minutes and the resulting supernatant was frozen and stored. (4) Thereafter, recovering and supplying of the culture solution was repeated every 24 hours. It is of note that the infection experiments were performed using 2 wells for all conditions.
(§2) (1) One day before the experiment, Vero cells were inoculated in a 24-well plate and incubated at 37° C. and 5% CO2. (2) Samples for titer measurement were thawed and ten-fold serial dilutions of the samples were prepared using the maintenance culture solution. (3) The culture solution was removed from the plate thus prepared, and the serial dilutions prepared in procedure (2) were each inoculated in a volume of 200 μl. After adsorption for 1 hour, the inoculation liquid was removed from the plate, and 1% methyl cellulose (MEM+1% methyl cellulose+1% fetal bovine serum) in a volume of 1 ml was added to the plate. […] The crystal violet solution was removed from the plate, and, after rinsing with water and drying, the number of plaques was counted. The viral titer in the culture solution was calculated based on the number of plaques. […]

Another series relates to dengue virus. The settings on record: Non-Patent Literatures 9 to 11; cited from earlier work.
In series [2] the test system is dengue virus type-4 TVP360 strain (DENV4). Kind of series: Inhibitory effect on dengue virus type-4 replication in Vero cells. Type of series: cell-based. As to the method:
as §1, §2

Series [3] has as its system Zika virus PRVABC59 strain (ZKV). Kind of series: Inhibitory effect on Zika virus replication in Vero cells. The class given is cell-based. As to the method:
as §1, §2

Series [4] concerns Japanese encephalitis virus. The settings on record: Non-Patent Literature 6; cited from earlier work.
Series [5] has as its system Japanese encephalitis virus Nakayama strain (JEV Nakayama). Kind of series: Inhibitory effect on Japanese encephalitis virus replication in Vero cells (progeny virus titer by plaque assay). Type of series: cell-based.
Another series relates to flavivirus. The experiment in a line: Difference in concentrations for exhibiting cell toxicity and drug efficacy (therapeutic window). The text has this:
As one of action mechanisms of the anti-dengue virus activity of lucidone, an increase in HO-1 in cells is known.

The test system of series [6] is dengue virus type-1 Mochizuki strain (DENV1). Kind of series: Inhibitory effect on dengue virus type-1 replication in Vero cells. Type of series: cell-based. As to the method:
as §1, with “(4) Thereafter, recovering and supplying of the culture solution was repeated every 24 hours. It is of note that the infection experiments were performed using 2 wells for all conditions.” left out
(1) One day before the experiment, Vero cells were inoculated in a 24-well plate and incubated at 37° C. and 5% CO2. […] The crystal violet solution was removed from the plate, and, after rinsing with water and drying, the number of plaques was counted. The viral titer in the culture solution was calculated based on the number of plaques. […]

A further series relates to Vero cells. The experiment in a line: MTT assay, cell toxicity in non-infected cells. The class given is cell-based. As to the method: (§3) (1) One day before the experiment, Vero cells were inoculated in a 96-well plate and incubated at 37° C. and 5% CO2. (2) Two-fold serial dilutions of 5-ALA were prepared (˜0.8 mM) using the maintenance culture solution (MEM+1% fetal bovine serum+10 mM non-essential amino acid+1000 U/ml penicillin+100 μg/ml streptomycin+1 mM HEPES). Water was used as a negative control. Two-fold serial dilutions of lucidone were also prepared (˜160 μM) in the same manner. (3) The culture solution was removed from the plate thus prepared, and the 5-ALA solution or the lucidone solution prepared in (2) was added to the plate in a volume of 100 μl per well. Three wells were used for each condition. (4) The old culture solution was removed from the plate every 24 hours, and the fresh 5-ALA solution or lucidone solution was added to the plate, followed by culturing. (5) The cells were cultured with the 5-ALA solution for 2, 4, or 7 days or with the lucidone solution for 7 days, and then rinsed with PBS twice. An MTT solution in a volume of 100 μl was added to the cells, and the cells were cultured at 37° C. and 5% CO2 for 3 hours. The MTT solution in use was prepared by dissolving thiazolyl blue tetrazolium bromide in a mixture containing equal volumes of 2×MEM and sterile water (10 mg/ml) and sterilizing the resulting mixture by filtration (prepared before use). (6) The culture solution was removed from the plate, and isopropyl alcohol in a volume of 100 μl was added to the plate, and the plate was subject to shaking at room temperature for about 5 minutes. (7) The absorbance at 570 nm was measured, and the relative absorbance was calculated as a percentage with respect to the absorbance in the well of 0 mM treatment.

Series [7] is described as follows: MTT assay, cell toxicity in non-infected cells. Type of series: cell-based. The settings on record: African green monkey, Vero cells (non-infected); non-infected cells; treatment for 7 days; read-out: CC50 (concentration at which cell toxicity is caused to 50% of cells). How it is done: as §3
(In general: Formazan colour is commonly taken as a measure of viable cells.)

A further series relates to heme oxygenase-1 (HO-1). Conditions: Non-Patent Literatures 11, 13, 14, 15; cited from earlier work.

Like-named read-outs stand apart in the source and are kept apart here. Some results are limits rather than exact numbers.

For the molecule `O=C(Nc1ccc([N+](=O)[O-])cc1Cl)c1cc(Cl)ccc1O` [niclosamide], the “replication of Zika virus” value in the series with Zika virus is reported as “suppress replication”.
Regarding `NC(=O)c1ncn([C@@H]2O[C@H](CO)[C@@H](O)[C@H]2O)n1` [ribavirin, reference compound], in series [1] (ribavirin 300 μM, from Day 7), the “inhibitory effect on dengue virus type-3 replication under continuous treatment” value was “reduction in the inhibitory effect”. Besides, in the series with dengue virus, the “replication of dengue virus” value is listed as “suppress replication”. Also, the “inhibitory effect on dengue virus type-4 replication under continuous treatment” value in series [2] (ribavirin 300 μM) is “reduction in the inhibitory effect”. The “inhibitory effect on dengue virus type-4 replication, ribavirin compared with 5-ALA” value in series [2] (ribavirin 300 μM vs 5-ALA 0.2 mM, FIG. 24) is “stronger than the inhibitory effect on the dengue virus replication by treatment with 5-ALA (0.2 mM)”. Besides, in series [3] (ribavirin 300 μM), the “inhibitory effect on Zika virus replication under continuous treatment” value was “reduction in the inhibitory effect”.
In the case of `CC(=O)Oc1ccccc1C(=O)Nc1ncc([N+](=O)[O-])s1` [nitazoxanide], the “replication of Japanese encephalitis virus” value in series [4] is on record as “suppress replication”.
In the case of `Cl.NCC(=O)CCC(=O)O` [5-ALA, 5-aminolevulinic acid hydrochloride], the “inhibitory effect on dengue virus type-3 replication on Day 8” value in series [1] (0.2 mM, Day 8) is “decreased”. The “inhibitory effect on dengue virus type-3” value in [1] (0.2 mM, treatment for 7 days after infection, FIG. 23) is “exhibited up to Day 7”. The “inhibitory effect on dengue virus type-3 replication compared with ribavirin” value in [1] (5-ALA 0.2 mM vs ribavirin 300 μM, FIG. 23) is “stronger than the effect of ribavirin (300 μM)”. The “inhibitory effect on Japanese encephalitis virus replication” value in series [5] (0.05 mM, treatment for 7 days after infection, FIG. 7) is “exhibited”; in [5] (0.2 mM, treatment for 2 days after infection, FIG. 11), “exhibited”; in series [5] (0.2 mM, treatment for 4 days after infection, FIG. 10), “exhibited”; in series [5] (0.2 mM, treatment for 7 days after infection, FIG. 7), “exhibited”. In addition, in [5] (5-ALA 0.2 mM vs lucidone 10 μM and 2.5 μM, 7 days after infection, FIG. 20), the “inhibitory effect on Japanese encephalitis virus replication, 5-ALA compared with low dose lucidone” value is “stronger inhibitory effect on the Japanese encephalitis virus replication than 10 μM and 2.5 μM of lucidone”. For the same molecule, in series [5] (5-ALA 0.2 mM vs ribavirin 300 μM, 7 days after infection, FIG. 7), the “inhibitory effect on Japanese encephalitis virus replication compared with ribavirin” value is “stronger than the effect of ribavirin (300 μM)”. Also, in series [5] (1 day treatment after infection, vs Example 4), the “duration of inhibitory effect on Japanese encephalitis virus after removal, compared with dengue virus” value is “lasted longer than in the case of the dengue virus”. The “inhibitory effect on Japanese encephalitis virus replication, treatment for 4 days and 2 days compared with 7 days” value in series [5] (FIG. 7, FIG. 10, FIG. 11) is recorded as “less inhibitory effect”. Also, in [5] (after removal of the agent), the “inhibitory effect on Japanese encephalitis virus replication when the agent was removed from the culture solution” value is “lost with the lapse of time”. Besides, the “appearance of virus resistant to the agent” value in series [5] (continuous treatment 7 days, compared with ribavirin, FIG. 7) is on record as “delays the appearance of the virus resistant to the agent more than ribavirin”. Besides, the “dose-dependent inhibitory effect on Japanese encephalitis virus replication” value in series [5] (treatment after infection for 1 day (Day 2), 0.05 mM to 1 mM, FIG. 5) is “exhibited the dose-dependent inhibitory effect”. The “inhibitory effect on dengue virus type-4 replication on Day 8” value in [2] (0.2 mM, Day 8) is reported as “decreased”. Moreover, in series [2] (0.2 mM, treatment for 7 days after infection, FIG. 24), the “inhibitory effect on dengue virus type-4” value is “exhibited up to Day 7”. Also, in series [3] (0.2 mM, after Day 9), the “inhibitory effect after Day 9” value is “decreased”. The “inhibitory effect on Zika virus” value in [3] (0.2 mM, treatment for 7 days after infection, FIG. 25) is “exhibited up to Day 8”. For the same molecule, the “inhibitory effect on Zika virus replication compared with ribavirin” value in series [3] (5-ALA 0.2 mM vs ribavirin 300 μM, FIG. 25) is “stronger than the effect of ribavirin (300 μM) on Day 5, Day 6, and Day 8”. Further, the “concentration required for causing the cell toxicity” value in the series on flavivirus (higher than 0.8 mM not examined) was “at least 0.8 mM”. Besides, the “concentration at which anti-flavivirus activity is confirmed” value in the series on flavivirus (summary of Examples) was at least 0.2 mM. In [6] (0.2 mM, treatment for 7 days after infection, FIG. 22), the “inhibitory effect on dengue virus type-1” value is reported as “exhibited up to Day 9”. The “inhibitory effect on dengue virus type-1 replication compared with ribavirin” value in series [6] (5-ALA 0.2 mM vs ribavirin 300 μM, FIG. 22) is “stronger than the effect of ribavirin (300 μM)”. Further, in [6] (after removal of the agent), the “inhibitory effect on dengue virus type-1 when the agent was removed from the culture solution” value is reported as “lost with the lapse of time”. Also, the cell toxicity result in the series with Vero cells (non-infected cells, 5-ALA solution for 2, 4 or 7 days, up to 0.8 mM, FIGS. 12-14) is “observed in the non-infected cells in a dose-dependent manner”. Also, in series [7], the CC50 at 7 days is above 800 µM. The “heme oxygenase-1 (HO-1) in cells” value in the series on heme oxygenase-1 (HO-1) is on record as “induces expression of HO-1”.
For `COC1=CC(=O)C(=C(O)/C=C/c2ccccc2)C1=O` [lucidone, reference compound], in the series with dengue virus, the “replication of dengue virus” value is on record as “suppress replication”. In series [5] (lucidone 40 μM vs 5-ALA 0.2 mM, 7 days after infection, FIG. 17), the “inhibitory effect on Japanese encephalitis virus replication, lucidone compared with 5-ALA” value was “stronger inhibitory effect on the Japanese encephalitis virus replication than 0.2 mM 5-ALA”. Also, in the series on flavivirus (summary of Examples), the “concentration at which anti-flavivirus activity is confirmed” value came to 0.04 mM and the “concentration at which cell toxicity is confirmed” value was 40 µM. Besides, in the series on Vero cells (cells not infected with the flavivirus, 40 μM, 7 days), the “cell toxicity at 40 μM” value is reported as “did not cause the cell toxicity”. The cell toxicity result in the series on Vero cells (non-infected cells, lucidone for 7 days, up to 160 μM, FIG. 15) is “observed in a dose-dependent manner”. In addition, the CC50 in the series on Vero cells (non-infected cells, treatment for 7 days, read-out: CC50 (concentration at which cell toxicity is caused to 50% of cells)) is above 60 µM. In the series on heme oxygenase-1 (HO-1), the “heme oxygenase-1 (HO-1) in cells” value is “increases HO-1 in cells”.
Turning to Hemin, the “replication of Zika virus” value in the series with Zika virus was “suppress replication of Zika virus in vitro”; in the series with Zika virus (listed as hemin) it was “reduces replication of Zika virus in vitro”.

Values taken from patent US20220193124A1, “Therapeutic Agent for Flavivirus Infection” (NEOPHARMA JAPAN CO., LTD., priority 2019, published 2022).
